# Measured values from patent US20230044787A1, “TRICYCLE DIHYDROIMIDAZOPYRIMIDONE DERIVATIVE, PREPARATION METHOD THEREOF, PHARMACEUTICAL COMPOSITION AND USE THEREOF” (priority 2019, published 2023).
# Molecular target: T1, Lp-PLA2 (Homo sapiens, UniProt Q13093)
# T1 construct: aliquoted and thawed 40 μL of pooled human plasma was previously added; from tissue; host or cells: pooled human plasma
# T1 sequence (Q13093 22-441): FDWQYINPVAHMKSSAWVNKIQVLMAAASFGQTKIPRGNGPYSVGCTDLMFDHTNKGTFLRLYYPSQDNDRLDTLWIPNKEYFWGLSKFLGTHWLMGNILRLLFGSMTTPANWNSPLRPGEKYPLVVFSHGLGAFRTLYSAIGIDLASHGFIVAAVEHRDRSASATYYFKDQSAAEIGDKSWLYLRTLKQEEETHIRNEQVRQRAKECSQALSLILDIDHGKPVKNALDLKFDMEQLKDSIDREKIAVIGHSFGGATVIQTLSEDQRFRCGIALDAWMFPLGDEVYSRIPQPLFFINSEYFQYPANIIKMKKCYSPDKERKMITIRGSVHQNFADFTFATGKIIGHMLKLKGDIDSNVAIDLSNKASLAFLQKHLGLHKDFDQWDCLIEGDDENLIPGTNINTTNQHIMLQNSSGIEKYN
# Experiment: Lipoprotein-associated phospholipase A2 (Lp-PLA2) human plasma assay (Thio-PAF assay)
# Assay type: biochemical
# Conditions: Lp-PLA2 human plasma assay (Thio-PAF), pooled human plasma, 30-min pre-incubation at room temperature
row,IC50 [nM],SMILES
1,2.6,"O=c1nc(OCc2ccc(Oc3ccc(Cl)c(C(F)(F)F)c3)c(F)c2)cc2n1CC13CCC(CC1)N23 [Example 127, 3-((3-fluoro-4-(4-chloro-3-(trifluoromethyl)phenoxy)benzyl)oxy)-7,8-dihydro-1H,6H,9H-6,8a-ethanopyrrolo[1′,2′:3,4] imidazo[1,2-c]pyrimidin-1-one]"
2,8.4,"O=c1nc(OCc2ccc(Oc3cnc(C(F)(F)F)nc3)c(F)c2)cc2n1CC13CCC(CC1)N23 [Example 128, 3-((3-fluoro-4-((2-(trifluoromethyl)pyrimidin-5-yl)oxy)benzyl)oxy)-7,8-dihydro-1H,6H,9H-6,8a-ethanopyrrolo[1′,2′:3,4] imidazo[1,2-c]pyrimidin-1-one]"
3,6.5,"O=c1nc(OCc2ccc(Oc3ccc(C(F)(F)F)cc3)c(F)c2)cc2n1CC13CC(CN21)C3 [Example 129, 3-((3-fluoro-4-(4-(trifluoromethyl)phenoxy)benzyl)oxy)-7,8-dihydro-1H,6H,9H-7,8a-methanopyrrolo[1′,2′:3,4] imidazo[1,2-c]pyrimidin-1-one]"
4,4.8,"O=c1nc(OCc2ccc(Oc3ccc(C(F)(F)F)cc3)c(F)c2)cc2n1CC13CCC(CC1)N23 [Example 130, 3-((3-fluoro-4-(4-(trifluoromethyl)phenoxy)benzyl)oxy)-7,8-dihydro-1H,6H,9H-6,8a-ethanopyrrolo[1′,2′:3,4] imidazo[1,2-c]pyrimidin-1-one]"
5,7.9,O=C1N(Cc2ccccc2)[C@@H]2CN3c4cc(OCc5cc(F)c(Oc6ccnc(C(F)(F)F)c6)c(F)c5)nc(=O)n4C[C@]13C2 [Example 131]
6,5.9,"O=c1nc(OCCc2ccc(Oc3cccc(C(F)(F)F)c3)cc2)cc2n1C[C@]13CO[C@H](CN21)C3 [Example 132, (3S,11aR)-7-(4-(3-(trifluoromethyl)phenoxy)phenethoxy)-3,4-dihydro-1H,9H,11H-3,11a-methanopyrimido[6′,1′:2,3] imidazo[5,1-c][1,4]oxazin-9-one]"
7,36.6,"O=c1nc(OCCc2ccc(Oc3cccc(C(F)(F)F)c3)cc2)cc2n1CC13CC(CN21)C3 [Example 133, 3-(4-(3-(trifluoromethyl)phenoxy)phenethoxy)-7,8-dihydro-1H,6H,9H-7,8a-methanopyrrolo[1′,2′:3,4] imidazo[1,2-c]pyrimidin-1-one]"
8,17.2,"O=c1nc(OCc2cc(F)c(Oc3ccccc3)c(F)c2)cc2n1C[C@]13CO[C@H](CN21)C3 [Example 135, (3S,11aR)-7-((3,5-difluoro-4-phenoxybenzyl)oxy)-3,4-dihydro-1H,9H,11H-3,11a-methanopyrimido[6′,1′:2,3] imidazo[5,1-c][1,4]oxazin-9-one]"
9,3.8,O=c1nc(OCc2cc(F)c(Oc3ccc(F)c(F)c3)c(F)c2)cc2n1C[C@]13CO[C@H](CN21)C3 [Example 136]
10,5.8,O=c1nc(OCc2cc(F)c(Oc3cccc(F)c3)c(F)c2)cc2n1C[C@]13CO[C@H](CN21)C3 [Example 137]
11,2.4,"COCC12CN3c4cc(OCc5ccc(Oc6ccnc(C(F)(F)F)c6)c(F)c5)nc(=O)n4CC3(C1)C2 [Example 138, 3-((3-fluoro-4-((2-(trifluoromethyl)pyridin-4-yl)oxy)benzyl)oxy)-7-(methoxymethyl)-7,8-dihydro-1H,6H,9H-7,8a-methanopyrrolo[1′,2′:3,4] imidazo[1,2-c]pyrimidin-1-one]"
12,2.6,"O=c1nc(OCc2ccc(Oc3ccnc(C(F)(F)F)c3)c(F)c2)cc2n1CC13CC(C(F)F)(CN21)C3 [Example 139, 7-(difluoromethyl)-3-((3-fluoro-4-((2-(trifluoromethyl)pyridin-4-yl)oxy)benzyl)oxy)-7,8-dihydro-1H,6H,9H-7,8a-methanopyrrolo[1′,2′:3,4] imidazo[1,2-c]pyrimidin-1-one]"
13,3.9,"COc1c(OCc2ccc(Oc3ccnc(C(F)F)c3)c(F)c2)nc(=O)n2c1N1CC3CC1(C3)C2 [Example 140, 3-((4-((2-(difluoromethyl)pyridin-4-yl)oxy)-3-fluorobenzyl)oxy)-4-methoxy-7,8-dihydro-1H,6H,9H-7,8a-methanopyrrolo[1′,2′:3,4] imidazo[1,2-c]pyrimidin-1-one]"
14,6.1,"N#Cc1cc(F)cc(COc2cc3n(c(=O)n2)C[C@]24CO[C@H](CN32)C4)c1 [Example 141, 3-fluoro-5-((((3S,11aR)-9-oxo-3,4-dihydro-1H,9H,11H-3,11a-methanopyrimido[6′,1′:2,3]imidazo[5,1-c][1,4]oxazin-7-yl)oxy)methyl)benzonitrile]"
15,3.6,COc1c(OCc2ccc(F)c(C#N)c2)nc(=O)n2c1N1C[C@@H]3C[C@]1(CO3)C2 [Example 142]
16,2.5,O=c1nc(OCc2cc(F)c(Oc3ccc(Cl)c(F)c3)c(F)c2)cc2n1C[C@]13CO[C@H](CN21)C3 [Example 143]
17,2.4,"O=c1nc(OCc2cc(F)c(Oc3ccc(C(F)(F)F)cc3)c(F)c2)cc2n1C[C@]13CO[C@H](CN21)C3 [Example 144, (3S,11aR)-7-((3,5-difluoro-4-(4-(trifluoromethyl)phenoxy)benzyl)oxy)-3,4-dihydro-1H,9H,11H-3,11a-methanopyrimido[6′1′:2,3] imidazo[5,1-c][1,4]oxazin-9-one]"
18,4.3,"O=c1nc(OCc2cc(F)c(Oc3cccc(OC(F)(F)F)c3)c(F)c2)cc2n1C[C@]13CO[C@H](CN21)C3 [Example 145, (3S,11aR)-7-((3,5-difluoro-4-(3-(trifluoromethoxy)phenoxy)benzyl)oxy)-3,4-dihydro-1H,9H,11H-3,11a-methanopyrimido[6′,1′:2,3] imidazo[5,1-c][1,4]oxazin-9-one]"

row,IC50 [nM],SMILES
1,2.7,"O=c1nc(OCc2ccc(Oc3ccc(F)c(F)c3)c(F)c2)cc2n1C[C@]13CO[C@H](CN21)C3 [Example 146, (3S,11aR)-7-((4-(3,4-difluorophenoxy)-3-fluorobenzyl)oxy)-3,4-dihydro-1H,9H,11H-3,11a-methanopyrimido[6′,1′:2,3] imidazo[5,1-c][1,4]oxazin-9-one]"
2,6.5,O=c1nc(OCc2cc(F)c(Oc3ccc(F)cc3)c(F)c2)cc2n1C[C@]13CO[C@H](CN21)C3 [Example 147]
3,4.3,"O=c1nc(OCc2ccc(Oc3cncc(C(F)(F)F)c3)c(F)c2)cc2n1CC13CC(CN21)C3 [Example 148, 3-((3-fluoro-4-((5-(trifluoromethyl)pyridin-3-yl)oxy)benzyl)oxy)-7,8-dihydro-1H,6H,9H-7,8a-methanopyrrolo[1′,2′:3,4] imidazo[1,2-c]pyrimidin-1-one]"
4,4.1,"O=c1nc(OCc2ccc(Oc3ccnc(C(F)(F)F)c3)c(F)c2)cc2n1CC13CCC(CC1)N23 [Example 149, 3-((3-fluoro-4-((2-(trifluoromethyl)pyridin-4-yl)oxy)benzyl)oxy)-7,8-dihydro-1H,6H,9H-6,8a-ethanopyrrolo[1′,2′:3,4] imidazo[1,2-c]pyrimidin-1-one]"
5,4.8,"COc1c(OCc2ccc(F)c(F)c2)nc(=O)n2c1N1CC3CC1(C3)C2 [Example 150, 3-((3,4-difluorobenzyl)oxy)-4-methoxy-7,8-dihydro-1H,6H,9H-7,8a-methanopyrrolo[1′,2′:3,4] imidazo[1,2-c]pyrimidin-1-one]"
6,5.7,COc1c(OCc2cc(F)c(F)c(F)c2)nc(=O)n2c1N1CC3CC1(C3)C2 [Example 151]
7,3.9,"O=c1nc(OCc2ccc(Oc3ccnc(C(F)(F)F)c3)c(F)c2)cc2n1CC13CCC(COC1)N23 (centres unmarked) [Example 152, 7-((3-fluoro-4-((2-(trifluoromethyl)pyridin-4-yl)oxy)benzyl)oxy)-3,4-dihydro-1H,9H,11H-4,11a-ethanopyrimido[6′,1′:2,3] imidazo[5,1-c][1,4]oxazin-9-one]"
8,4.1,O=c1nc(OCc2ccc(Oc3ccnc(OC(F)(F)F)c3)c(F)c2)cc2n1CC13CC(CN21)C3 [Example 153]
9,3.6,"O=c1nc(OCc2ccc(Oc3ccnc(OC(F)(F)F)c3)c(F)c2)cc2n1CC13CCC(CC1)N23 [Example 154, 3-((3-fluoro-4-((2-(trifluoromethoxy)pyridin-4-yl)oxy)benzyl)oxy)-7,8-dihydro-1H,6H,9H-6,8a-ethanopyrrolo[1′,2′:3,4] imidazo[1,2-c]pyrimidin-1-one]"
10,3.7,O=c1nc(OCc2ccc(Oc3ccnc(Cl)c3)c(F)c2)cc2n1CC13CC(CN21)C3 [Example 155]
11,5.7,O=c1nc(OCCc2ccc(Oc3ccnc(C(F)(F)F)c3)c(F)c2)cc2n1C[C@]13CO[C@H](CN21)C3 [Example 156]
12,3.9,"O=c1nc(OCc2ccc(Oc3ccnc(C(F)(F)F)c3)c(F)c2)cc2n1CC13CC(F)(CN21)C3 [Example 157, 7-fluoro-3-((3-fluoro-4-((2-(trifluoromethyl)pyridin-4-yl)oxy)benzyl)oxy)-7,8-dihydro-1H,6H,9H-7,8a-methanopyrrolo[1′,2′:3,4] imidazo[1,2-c]pyrimidin-1-one]"
13,2.1,"O=c1nc(OCc2cc(F)c(Oc3ccnc(C(F)(F)F)c3)c(F)c2)cc2n1CC13CC(F)(CN21)C3 [Example 158, 3-((3,5-difluoro-4-((2-(trifluoromethyl)pyridin-4-yl)oxy)benzyl)oxy)-7-fluoro-7,8-dihydro-1H,6H,9H-7,8a-methanopyrrolo[1′,2′:3,4] imidazo[1,2-c]pyrimidine-1-one]"
14,128,N#Cc1cc(F)cc(COc2cc3n(c(=O)n2)CC24CC(F)(CN32)C4)c1 [Example 159]
15,3.8,N#Cc1cc(COc2cc3n(c(=O)n2)CC24CC(F)(CN32)C4)ccc1F [Example 160]
16,18.1,O=c1nc(OCc2ccc(Oc3ccnc(C(F)F)c3)cc2)cc2n1CC13CC(CN21)C3 [Example 161]
17,6.5,O=c1nc(OCc2ccc(Oc3ccnc(C(F)F)c3)c(F)c2)cc2n1CC13CC(CN21)C3 [Example 162]
